{"source": "patent US9309247B2", "about": "“2-substituted imidazo[4,5-D]phenanthroline derivatives and their use in the treatment of cancer” (Aptose Biosciences Inc., priority 2013, dated 2016)", "origin": "cited, not measured here", "key": {"[1]": {"system": "Saccharmyces cerevisiae strains that have mutations in genes related to cell cycle control and DNA repair damage", "conditions": "Stage0 testing, single concentration, six yeast strains; cited from earlier work"}, "[2]": {"conditions": "NCI screen; cited from earlier work"}}}
{"compound": "Cc1ccccc1-c1nc2c3ccccc3c3ccccc3c2[nH]1", "note": "[NCI #338970]", "values": [{"measurement": "activity in the Yeast Anticancer Drug Screen", "setting": "[1]", "result": "active"}, {"measurement": "activity in the In Vivo Anticancer Drug Screen", "setting": "[2]", "result": "None of these three compounds showed any activity"}]}
